The results in this text go back to patent publication US8691184B2, “Bcl-2/Bcl-xL inhibitors and therapeutic methods using the same” (The Regents of the University of Michigan, priority 2011, dated 2014).

The IC50 is the concentration needed to halve the response being measured. By Ki is commonly meant the equilibrium dissociation constant of an inhibitor or competing ligand from its target.

The test system of data set [1] is H146 cells. The experiment in a line: Cell growth assay (WST-8), H146. Type of data set: cell-based. As to conditions: Homo sapiens, NCI-H146, 96 h; Table 3, 4 days; read-out: Cell Growth Inhibition (IC50 ± SD) H146. As for the experimental part:
(§1) RS4;11 and H146 cells were seeded in 96-well cell culture plates at a density of 10,000 cells/well with serially diluted compounds and incubated at 37° C. in an atmosphere of 95% air and 5% CO2 for 4 days. Cell viability was determined using the WST-8 (2-(2-methoxy-4-nitrophenyl)-3-(4-nitrophenyl)-5-(2,4-disulfophenyl)-2H-tetrazolium, monosodium salt) based Cell Counting-8 Kit (Dojindo Molecular Technologies, Inc., Rockville, Md.) according to the manufacture's instruction. Briefly, WST-8 was added to each well at a final concentration of 10% (v/v), and then the plates were incubated at 37° C. for 1˜2 hours for color development. The absorbance was measured at 450 nm using a SPECTRAmax PLUS plate reader (Molecular Devices, Sunnyvale, Calif.). The half maximal inhibitory concentration (IC50) was calculated using the GraphPad Prism 5 software (GraphPad Software, La Jolla, Calif.).
(Formazan colour is commonly taken as a measure of viable cells.)

The test system of data set [2] is RS4;11 cell line. As to the kind of experiment: Western blot of PARP and caspase-3 cleavage, RS4;11. To be noted: as low as 100 nM, 8-hr treatment. It is filed as cell-based. As for the experimental part:
(§2) Cells were lysed with lysis buffer (PBS containing 1% NP40, 0.5% Na-deoxycholate, and 0.1% SDS) supplemented with protease inhibitors (α-complete, Roche). The protein extracts were quantified using a calorimetric assay (Bradford Reagent) (BioRad, Hercules, Calif.). Proteins were electrophoresed onto 4-20% SDS-PAGE gels (Invitrogen) and transferred onto polyvinylidene difluoride membranes (Bio-Rad). Following blocking in 5% milk, membranes were incubated with a specific primary antibody, washed, and incubated with horseradish peroxidase-linked secondary antibody (Pierce). The signals were visualized with the chemiluminescent horseradish peroxidase antibody detection reagent (Denville Scientific).
On the technique in general: A western blot detects proteins with antibodies after separation by electrophoresis.

Data set [3] relates to ML-2 cell line. The experiment in a line: Western blot of PARP and caspase-3 cleavage, ML-2. Type of data set: cell-based. To be noted: as low as 100 nM, 8-hr treatment. The procedure: as §2
Data set [4] deals with ML-2 AML cell line. The experiment in a line: Apoptosis assay (Annexin-V/PI flow cytometry), ML-2. As to conditions: 300 nM, 24 hr. Type of data set: cell-based. The procedure: (§3) Apoptosis assay was performed using the Annexin-V-FLUOS Staining kit (Roche Diagnostics, Indianapolis, Ind.) according to the manufacturer's instruction. Briefly, cells were treated with compounds for the indicated time points, harvested and washed with PBS. Cells were stained with Annexin V-FITC and Propidium iodide for 15 minutes at room temperature in the dark before analyzed with a BD Biosciences FACSCaliburs (Becton Dickinson).

Data set [5] has as its system RS4;11 cells. As to the kind of experiment: Cell growth assay (WST-8), RS4;11. To be noted: Homo sapiens, RS4-11, 96 h; Table 3, 4 days; read-out: Cell Growth Inhibition (IC50 ± SD) RS4; 11. Type of data set: cell-based. As for the experimental part:
as §1

Data set [6] concerns cellular Bcl-2/Bcl-xL. As to the kind of experiment: Competitive pull-down against Biotin-150 in ML-2 and H146 cell lysates. Type of data set: binding. As to conditions: competitive experiment.
The subject of data set [7] is RS4;11 cell line. As to the kind of experiment: Apoptosis assay (Annexin-V/PI flow cytometry), RS4;11. To be noted: for Apoptosis induction in RS4;11: time- and dose-dependent; for Apoptosis induction in RS4;11 / RS4;11 cells undergoing apoptosis: Annexin-V/PI; for RS4;11 cells undergoing apoptosis: within 4 hrs. It is filed as cell-based. The procedure: as §3
Data set [8] deals with ML-2 acute myeloid leukemia (AML) cell line. As to the kind of experiment: Cell growth assay (WST-8), ML-2. To be noted: Table 3; read-out: Cell Growth Inhibition (IC50 ± SD) ML-2. Type of data set: cell-based.
Data set [9] has as its system H146 cell line. The experiment in a line: Western blot of PARP and caspase-3 cleavage, H146. Type of data set: cell-based. To be noted: as low as 100 nM, 8-hr treatment. The procedure: as §2
The test system of data set [10] is H146 small-cell lung cancer cell line. As to the kind of experiment: Cell death assay (trypan blue), H146. It is filed as cell-based. As to conditions: for Cell death induction in H146: trypan blue assay; for H146 cells undergoing cell death: 24-hr treatment, trypan blue. The procedure:
Cell death assay was performed using a Trypan blue exclusion test of cell viability. One million cells were seeded in 6-well plates and incubated at 37° C. in an atmosphere of 95% air and 5% CO2 with or without compounds for the indicated time points. At the end of treatment, cells were collected and centrifuged at 1000 rpm for 5 minutes. The cell pellets were re-suspended in PBS and mixed with 0.4% Trypan blue (Invitrogen) at 1:1 dilution to determine cell viability using Olympus CKX41 microscope (Olympus, Center Valley, Pa.).

Data set [11] relates to H146 cell line. As to the kind of experiment: Cytochrome c and Smac release assay, H146. To be noted: H146, 300 nM, within 2 hr. It is filed as cell-based. As for the experimental part: (§4) Four million of H146 or RS4;11 cells were treated with compounds at 37° C. in an atmosphere of 95% air and 5% CO2 for the indicated time points, washed with PBS and re-suspended in 100 μl of digitonin buffer (75 mM NaCl, 8 mM Na2HPO4, 1 mM NaH2PO4, 1 mM EDTA, 350 μg/ml digitonin, and 250 mM sucrose). Cytosolic fractions were separated from organelle membrane fraction by centrifugation at 13,000 rpm for 1 min. The cytosolic fractions were resolved on a 12% SDS-PAGE and probed using anti-cytochrome c antibody (BD Biosciences) and anti-Smac (Cell Signaling Technology, Danvers, Mass.) antibody.
(§5) Potent and bona fide Bcl-2/Bcl-xL inhibitors are predicted to induce apoptosis in cancer cells by binding to cellular Bcl-2 and Bcl-xL proteins, antagonizing their anti-apoptotic function and triggering rapid release of Smac and cytochrome c from mitochondria. Furthermore, the release of Smac and cytochrome c should take place before apoptosis. Accordingly, compound 150 was tested for its ability to induce cytochrome c and Smac release in the RS4;11 and H146 cell lines.

Data set [12] concerns the target Bcl-xL (Homo sapiens, UniProt Q07817). As to the kind of experiment: FP-based binding assay, Bcl-xL. As to conditions: Table 2, FP-based assay.
Data set [13] can be described thus: Toxicity (maximum tolerated dose) in SCID mice. Type of data set: in vivo. As to conditions: for Weight loss at higher dose: SCID mice; for Weight loss or other signs of toxicity: female SCID mice, intravenously, daily, 5-times a week for 2 weeks.
Excerpt: These experiments established the maximum tolerated doses (MTD).
Data set [14] concerns RS4;11 cell line. As to the kind of experiment: Cytochrome c and Smac release assay, RS4;11. Type of data set: cell-based. As to conditions: RS4;11, 100 nM, within 30 minutes. As for the experimental part:
as §4, §5

For data set [15], the target named is Bcl-2 (Homo sapiens, UniProt P10415). The experiment in a line: FP-based binding assay, Bcl-2.
Bcl-2, sequence (P10415 whole entry): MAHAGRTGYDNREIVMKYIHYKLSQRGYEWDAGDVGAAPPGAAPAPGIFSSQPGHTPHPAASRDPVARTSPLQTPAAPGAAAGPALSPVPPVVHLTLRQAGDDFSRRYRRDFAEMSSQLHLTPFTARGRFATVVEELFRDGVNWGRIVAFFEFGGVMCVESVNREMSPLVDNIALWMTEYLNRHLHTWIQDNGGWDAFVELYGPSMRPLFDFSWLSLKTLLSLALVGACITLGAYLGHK
The subject of data set [16] is H146 xenograft tumors. The experiment in a line: Apoptosis induction in H146 xenograft tumors. Type of data set: in vivo, SCID mice. As for the experimental part:
(§6) Compounds 150, 133, and 169 were tested for their toxicity in severe combined immunodeficiency (SCID) mice. SCID mice bearing xenograft tumors were treated with vehicle control, or a single dose of a compound, and tumors were removed at different time-points for western blot analysis of cleavage of PARP (CL-PARP) and caspase-3 (CL Cas-3). The ability of compounds 150 and 169 to induce apoptosis at their MTD in RS4;11 or H146 xenograft tumors in SCID mice was tested. In these experiments, RS4;11 or H146 tumors were allowed to grow to 200-300 mm^3 in female SCID mice. A single dose of the compound was administered to the animals and tumor tissues were analyzed for cleavage of PARP and caspase-3.

Data set [17] relates to H146 xenograft tumors. As to the kind of experiment: Antitumor activity in the H146 xenograft tumor model. It is filed as in vivo. As for the experimental part: The antitumor activity of compound 169 in the H146 xenograft tumor model also was tested. […] At the end of the treatment (day 39), compound 169 inhibited the tumor growth by 100% (p<0.0001, t-test).
Data set [18] deals with RS4;11 xenograft tumors. The experiment in a line: Apoptosis induction in RS4;11 xenograft tumors. Type of data set: in vivo, SCID mice. As to conditions: RS4;11 model, single dose. As for the experimental part:
as §6

Bcl-xL, sequence (Q07817 whole entry): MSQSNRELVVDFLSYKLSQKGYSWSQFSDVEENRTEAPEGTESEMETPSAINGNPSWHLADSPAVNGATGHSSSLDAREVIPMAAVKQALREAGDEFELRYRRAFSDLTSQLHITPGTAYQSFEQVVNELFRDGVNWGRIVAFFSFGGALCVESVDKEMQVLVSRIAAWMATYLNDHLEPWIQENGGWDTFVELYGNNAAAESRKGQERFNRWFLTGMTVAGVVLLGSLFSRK

Turning to `CN(C)CC[C@H](CSc1ccccc1)Nc1ccc(S(=O)(=O)NC(=O)c2ccc(N3CCN(Cc4ccccc4-c4ccc(Cl)cc4)CC3)cc2)cc1[N+](=O)[O-]` [ABT-737, reference compound], the figures for the IC50 in data set [1], in [5] and in data set [8] were 62 ± 39 nM, 12 ± 6 nM and 16 ± 2 nM, respectively. Moreover, the “Cleavage of PARP and caspase-3” value is “highly effective in induction of cleavage of PARP and caspase-3” in data set [2]; “highly effective in induction of cleavage of PARP and caspase-3” in [3]; “highly effective in induction of cleavage of PARP and caspase-3” in data set [9]. In addition, the “ML-2 cells undergoing apoptosis” value in [4] is listed as “about 50%”. The “Blocking of interaction of cellular Bcl-2/Bcl-xL with Biotin-150” value in data set [6] is “blocked the interaction of cellular Bcl-2/Bcl-xL and Biotin-150 in a dose-dependent manner”. The “Apoptosis induction in RS4;11” value in data set [7] is “highly effective in induction of apoptosis”. Further, the “Cell death induction in H146” value in [10] is on record as “effectively induced cell death”.
As for `Cc1c(C(=O)NCCCN2CCN(C)CC2)c(-c2cccc(N3CCN(c4ccc(NS(=O)(=O)c5ccc(N[C@H](CCN(C)C)CSc6ccccc6)c([N+](=O)[O-])c5)cc4)CC3)c2)c(-c2ccc(Cl)cc2)n1C` [Compound 150], the half-maximal inhibitory concentration (IC50) was 102 ± 44 nM in data set [1]; 38 ± 24 nM in [5]; 9 ± 2 nM in [12] (read-out: Bcl-xL IC50 ± SD); 2 ± 0.6 nM in [15] (read-out: Bcl-2 IC50 ± SD, Table 2, FP-based assay); 185 ± 84 nM in data set [8]. The “Cleavage of PARP and caspase-3” value in [2] is “highly effective in induction of cleavage of PARP and caspase-3”; in [3], “highly effective in induction of cleavage of PARP and caspase-3”; in data set [9], “highly effective in induction of cleavage of PARP and caspase-3”. The “ML-2 cells undergoing apoptosis” value in data set [4] is recorded as “about 50%”. The “Release of cytochrome c and Smac from mitochondria” value in [11] is “strong release of cytochrome c and Smac”; in data set [14] it was “robust release of cytochrome c and Smac”. Further, the Ki in [12] (read-out: Bcl-xL Ki ± SD, no unit printed in this row) was 2.4 ± 0.5 nM; in [15] it was under 1 nM. Besides, the “Weight loss at higher dose” value in data set [13] (50 mg/kg) was “caused weight loss”. In addition, the “Weight loss or other signs of toxicity” value in data set [13] (25 mg/kg) is on record as “no or minimal weight loss or other signs of toxicity”. In addition, the “Blocking of interaction of cellular Bcl-2/Bcl-xL with Biotin-150” value in [6] is “blocked the interaction of cellular Bcl-2/Bcl-xL and Biotin-150 in a dose-dependent manner”. Moreover, the “RS4;11 tumor cells undergoing apoptosis” value in [7] (100 nM, 16 hr time-point) is over 50%. The results for the “RS4;11 cells undergoing apoptosis” value in data set [7] (100 nM) and in data set [7] (300 nM) were 30% and 60%, respectively. For the same compound, the “Apoptosis induction in RS4;11” value in data set [7] was “highly effective in induction of apoptosis”. For the same compound, the “H146 cells undergoing cell death” value in data set [10] (30 nM) is recorded as 40%; in [10] (100 nM) it was over 70%. For the same compound, the “Cell death induction in H146” value in [10] was “effectively induced cell death”.
For the compound `Cc1c(C(=O)O)c(-c2cccc(N3CCN(c4ccc(NS(=O)(=O)c5ccc(N[C@H](CCN6CCC(O)CC6)CSc6ccccc6)c(S(=O)(=O)C(F)(F)F)c5)cc4)CC3)c2)c(-c2ccc(Cl)cc2)n1C.Cl` [Compound 169, (R)-5-(4-chlorophenyl)-4-(3-(4-(4-(4-((4-(4-hydroxypiperidin-1-yl)-1-(phenylthio)butan-2-yl)amino)-3-((trifluoromethyl)sulfonyl)phenylsulfonamido)phenyl)piperazin-1-yl)phenyl)-1,2-dimethyl-1H-pyrrole-3-carboxylic acid], in [16] (H146, single-dose 50 mg/kg IV, 3 hr and 6 hr-time points), the “Cleavage of PARP and caspase-3 in xenograft tumor tissues” value was “induced cleavage of PARP and caspase-3”. In addition, the “Cleavage of PARP and caspase-3 in tumor tissues” value in [16] (H146 model, single dose) was “strong effect in induction of cleavage of PARP and caspase-3”. In addition, the “Tumor growth inhibition versus vehicle-treated tumors” value in data set [17] (day 53, 2 weeks after the treatment was stopped, p=0.0001) turned out to be 79%. Besides, in [17] (during the entire experiment), the “Other signs of toxicity” value is given as “no other signs of toxicity” and the Weight loss is under 3%. In addition, the Tumor growth inhibition in [17] (end of the treatment (day 39), p<0.0001) worked out at 100%. In [18], the “Cleavage of PARP and caspase-3 in tumor tissues” value is “strong effect in induction of cleavage of PARP and caspase-3”. The “Weight loss at higher dose” value in data set [13] (75 mg/kg) was “caused weight loss”. In addition, the “Weight loss or other signs of toxicity” value in [13] is reported as “no or minimal weight loss or other signs of toxicity”.
